These results are taken from ChEMBL document CHEMBL1141533, “Synthesis and pharmacological evaluation of a new targeted drug carrier system: beta-cyclodextrin coupled to oxytocin” (Bioorg Med Chem Lett, 2008).

SMILES strings stand for the structures. pEC50: −log10 of the molar value. Activity calls are given as the source filed them. The calls are words filed in the database; no cut-off is given here.

Holding throughout (assay type): functional, tissue-based
Test [1] relates to Myometrium. The test is described as follows: Induction of contraction in beta-estradiol stimulated rat myometrium.
For test [2], the system named is Myometrium. Briefly: Induction of contraction per minute in beta-estradiol stimulated rat myometrium at 1 nM.
Test [3] deals with Myometrium. The test is described as follows: Induction of contraction per minute in beta-estradiol stimulated rat myometrium at 0.6 uM.

As to `CC[C@H](C)[C@@H]1NC(=O)[C@H](Cc2ccc(O)cc2)NC(=O)[C@@H](N)CSSC[C@@H](C(=O)N2CCC[C@H]2C(=O)N[C@@H](CC(C)C)C(=O)NCC(=O)NC[C@H]2O[C@@H]3O[C@H]4[C@H](O)[C@@H](O)[C@@H](O[C@H]5[C@H](O)[C@@H](O)[C@@H](O[C@H]6[C@H](O)[C@@H](O)[C@@H](O[C@H]7[C@H](O)[C@@H](O)[C@@H](O[C@H]8[C@H](O)[C@@H](O)[C@@H](O[C@H]9[C@H](O)[C@@H](O)[C@@H](O[C@H]2[C@H](O)[C@H]3O)O[C@@H]9CO)O[C@@H]8CO)O[C@@H]7CO)O[C@@H]6CO)O[C@@H]5CO)O[C@@H]4CO)NC(=O)[C@H](CC(N)=O)NC(=O)[C@H](CCC(N)=O)NC1=O`, in the test on Myometrium [1], the pEC50 (commonly −log10 of the EC50, conventionally taken in molar units) is 6.40.

For the compound `CC[C@H](C)[C@@H]1NC(=O)[C@H](Cc2ccc(O)cc2)NC(=O)[C@@H](N)CSSC[C@@H](C(=O)N2CCC[C@H]2C(=O)N[C@@H](CC(C)C)C(=O)NCC(N)=O)NC(=O)[C@H](CC(N)=O)NC(=O)[C@H](CCC(N)=O)NC1=O` [OXYTOCIN], in the test with Myometrium [2], the result was Active. Besides, the pEC50 in the test on Myometrium [1] is 8.77.

With `CC[C@H](C)[C@@H]1NC(=O)[C@H](Cc2ccc(O)cc2)NC(=O)[C@H](N)CSSC[C@@H](C(=O)N2CCC[C@H]2C(=O)N[C@@H](CC(C)C)C(=O)NCC(=O)NC[C@H]2O[C@@H]3O[C@H]4[C@H](O)[C@@H](O)[C@@H](O[C@H]5[C@H](O)[C@@H](O)[C@@H](O[C@H]6[C@H](O)[C@@H](O)[C@@H](O[C@H]7[C@H](O)[C@@H](O)[C@@H](O[C@H]8[C@H](O)[C@@H](O)[C@@H](O[C@H]9[C@H](O)[C@@H](O)[C@@H](O[C@H]2[C@H](O)[C@H]3O)O[C@@H]9CO)O[C@@H]8CO)O[C@@H]7CO)O[C@@H]6CO)O[C@@H]5CO)O[C@@H]4CO)NC(=O)[C@H](CC(N)=O)NC(=O)[C@H](CCC(N)=O)NC1=O`, the result in the test with Myometrium [3] was Active.
